The results in this text go back to patent publication US6184252A, “2-amino-1,3-alkanediol compositions for inducing/stimulating hair growth and/or retarding hair loss” (priority 1996, dated 2001).

What all share (assay type): cell-based
For data set [1], the system named is HaCat cells. Nature of the data set: Cell viability in the presence of doxorubicin (XTT kit). As to conditions: for increase in the number of cells with respect to the control (A): read at 48 hours. As for the experimental part: Effect of 2-amino-1,3-octadecanediol and Derivatives Thereof on Cell Viability in the Presence of Doxorubicin
HaCat cells were cultured as in Example 2.
(§1) 24 hours after inoculation, the cells were contacted with the various test compounds in a KBM medium (marketed by Clonetics) containing insulin at 5 μg/ml and hydrocortisone at 0.5 μg/ml.
The cells were cultured in the presence of the 2-amino-1,3-octadecanediol to be tested until evaluation of cell viability.
Doxorubicin at a concentration of 1 μg/ml was added to the culture medium for 2 hours at the beginning of the experiment.
(§2) Cell viability was evaluated 48 hours later by measuring the mitochondrial respiration. This was carried out using an XTT kit, marketed by Boehringer, according to the supplier's instructions.
(§3) The experiment was carried out with the following compounds at a concentration of 50 nM:
in comparison with the culture medium without alkanediol and without doxorubicin (A) and with a medium containing only doxorubicin (B).
The results, expressed as percentage, represent the increase in the number of cells with respect to the control (A), namely, with respect to a culture produced under the same conditions in the absence of alkanediol compounds and of doxorubicin.

Data set [2] concerns HaCat cells. How it is done: Effect of 2-amino-1,3-octadecanediol and Derivatives Thereof on Cell Viability in the Presence of a Compound Based on Sphingenine, N-acetylsphingenine
The cells were cultured as in Example 5. N-Acetylsphingenine was at a concentration of 10 μM.
as §3
in comparison with the culture medium without alkanediol and without N-acetylsphingenine (A) and with a medium containing only N-acetylsphingenine (B).
The results, expressed as percentage, represent the number of cells with respect to the control (A), namely, with respect to a culture produced under the same conditions in the absence of alkanediol compounds and of N-acetylsphingenine.

The test system of data set [3] is HaCat cells (cultured keratinocytes). Put plainly: Proliferative influence on cultured keratinocytes (cell counting with Coulter Counter). The note with it: Homo sapiens, 120 h, 5 days, read-out: increase in the number of cells with respect to the control; for activation at 0.0005 µM: 0.5 nM; for activation at 0.005 µM: 5 nM; for activation at 0.05 µM: 50 nM; for activation at 0.5 µM: 500 nM. As for the experimental part:
Measurement of the Proliferative Influence of 2-amino-1,3-octadecanediol and Derivatives Thereof on Cultured Keratinocytes
HaCat cells (Boukamp and coworkers, J. Cell Biol., vol. 106, March 1988, 761-771) were cultured in DMEM medium (marketed by Gibco) containing amino acids (mixture of nonessential amino acids) at a concentration of 0.1 mM, penicillin and streptomycin at respective concentrations of 50 International Units per […] and of 50 μg/ml, glutamine at a concentration of 2 mM, sodium pyruvate at a concentration of 1 mM and 10% fetal calf serum. These cells were inoculated at a density of 10,000 cells per well in the 24 wells of plates of the multiwell type (Costar, France). 24 hours after inoculation, the cells were contacted with the various test compounds in a KBM medium (marketed by Clonetics) containing 0.15 mM of calcium ion, insulin at 5 μg/ml, hydrocortisone at 0.5 μg/ml and lipid-free bovine serum albumin at 1 μg/ml.
Cellular counting was carried out 5 days after the addition of the various ceramides using a cell counter of the Coulter Counter type.
The various compounds were tested at 0.5 nM, 5 nM, 50 nM and 500 nM.
The results, expressed as percentage, represent the increase in the number of cells with respect to the control, namely, with respect to a culture produced under the same conditions in the absence of sphinganine.

Data set [4] shares this test system. Put plainly: Cell viability (mitochondrial respiration, XTT kit). As to conditions: for activation at 0.05 µM: Homo sapiens, HaCaT, read-out: increase in the number of cells with respect to the control (cell viability). How it is done: Measurement of the Effect of 2-amino-1,3-octadecanediol and Derivatives Thereof on Cell Viability
HaCat cells were cultured as in Example 1.
(§4) These were then inoculated at a density of 20,000 cells per well in the 24 wells of plates of the multiwell type (Costar, France).
as §1, §2
The compounds A, B and C of the above Example 1 were tested at a concentration of 50 nM, as well as a derivative based on sphingenine: N-palmitoylsphingenine marketeed by Sigma (C16H).

The subject of another data set is hair follicle. Nature of the data set: Survival of the hair follicle in vitro. As to conditions: Homo sapiens, read-out: percentage of surviving follicles. As for the experimental part: Viable in vitro hair follicles were prepared according to the technique described in FR-95/08,465, filed Jul. 12, 1995 and assigned to the assignee hereof. From a scalp biopsy, a rather fine strip of scalp was isolated using a scalpel. The adipose tissue surrounding the follicles was removed with microforceps while avoiding damage to the hair bulb. The follicle was cut and removed with a scalpel under a microscope in order to separate it from its epidermal and dermal surroundings. The fragment obtained was maintained in culture in Williams E medium, at 37° C., in a humid atmosphere in the presence of CO2. The survival of the follicles was evaluated each day by counting the living follicles, according to their morphological appearance. The results are reported as percentage of surviving follicles per day. The experiment was carried out employing the following compounds at a concentration of 50 nM: in comparison with the culture medium without alkanediol (A).

Data set [5] has as its system HaCat cells (keratinocytes). Nature of the data set: Effect on the cell cycle (BrdU incorporation, entry into S phase). As to conditions: 50 nM; for activation at 0.05 µM: Homo sapiens, HaCaT, read-out: increase in the number of cells which have entered into the S phase with respect to the control. As for the experimental part:
Measurement of the Effect of 2-amino-1,3-octadecanediol and Derivatives Thereof on the Cell Cycle
HaCat cells were cultured as above.
as §4
24 hours after inoculation, the cells were contacted with the various test compounds in a KBM medium (marketed by Clonetics) containing insulin at 5 μg/ml and hydrocortisone at 0.5 μg/ml and 5-bromo-2'-deoxyuridine (BrdU) at 1 μM.
[…] This was carried out using a BrdU fast kit, marketed by Boehringer, according to the supplier's instructions.
The compounds A, B and C of the above example were tested at a concentration of 50 nM.
The results, expressed as percentage, represent the increase in the number of cells which have entered into the S phase with respect to the control, namely, with respect to a culture produced under the same conditions in the absence of alkanediol compounds.

The mark [6] stands for this setting: alkanediol 50 nM in presence of doxorubicin 1 μg/ml for 2 hours.

Read-outs that look alike come from different tables or passages of the source.

Turning to `COc1cccc2c1C(=O)c1c(O)c3c(c(O)c1C2=O)C[C@@](O)(C(=O)CO)C[C@@H]3O[C@H]1C[C@H](N)[C@H](O)[C@H](C)O1` [Doxorubicin, reference compound], in the data set with HaCat cells [1] (doxorubicin 1 μg/ml for 2 hours, alkanediol 50 nM), the “cell viability in the presence of doxorubicin (in words)” value is listed as “caused a decrease in cell viability”. Further, the “increase in the number of cells with respect to the control (A)” value (“increase in the number of cells … (A)” for short) in the data set on HaCat cells [1] (only doxorubicin, 1 μg/ml for 2 hours) is -20%.
Turning to `CCCCCCCCCCCCC/C=C/[C@@H](O)[C@H](CO)NC(C)=O` [N-Acetylsphingenine], in the data set on HaCat cells [2] (N-acetylsphingenine 10 μM, alkanediol 50 nM), the “cell viability in the presence of N-acetylsphingenine (in words)” value is recorded as “caused a decrease in cell viability”. The “number of cells with respect to the control (A)” value in the data set with HaCat cells [2] (human, hacat cells, 48 h, 10 µM) is listed as 57%.
For `CCCCCCCCCCCCCCCC(O)C(CO)NC(C)=O` (stereo not drawn) [E, 2-acetylamino-1,3-octadecanediol], in data set [3], the activation at 0.0005 µM amounted to 17%, the activation at 0.005 µM was 34%, the activation at 0.05 µM worked out at 29% and the activation at 0.5 µM was found to be 35%.
Take `CCCCCCCCCCCCC/C=C/[C@@H](O)[C@H](CO)NC(=O)CCCCCCCCCCCCCCC` [Compound C16H, N-palmitoylsphingenine, reference compound]: in data set [4] (50 nM, 48 hours), the “increase in the number of cells with respect to the control (cell viability)” value was -25% and the “viability of the cultured keratinocytes (in words)” value is listed as “elicited a cytotoxic effect on the cultured cells”.
In the case of `CCCCCCCCCCCCCCCCCCCCCCCC(=O)NC(CO)C(O)CCCCCCCCCCCCCCC` (stereo not drawn) [D, 2-tetracosanoylamino-1,3-octadecanediol], in data set [3], the activation at 0.0005 µM came out at 22%, the activation at 0.005 µM was 27%, the activation at 0.05 µM came out at 33% and the activation at 0.5 µM amounted to 42%.
As to `CCCCCCCCCCCCCCCC(O)C(CO)NC(=O)CCCCCCC` (stereo not drawn) [F, 2-octanoylamino-1,3-octadecanediol], in data set [3], the activation at 0.0005 µM came out at 15%, the activation at 0.005 µM was found to be 18%, the activation at 0.05 µM stood at 31% and the activation at 0.5 µM was 27%.
For `CCCCCCCC/C=C\CCCCCCCC(=O)NC(CO)C(O)CCCCCCCCCCCCCCC` (stereo not drawn) [B, 2-oleoylamino-1,3-octadecanediol], the viability at 0.05 µM in the data set on hair follicle (0 h) was determined as 100%; in the data set with hair follicle (24 h), 100%; with hair follicle (120 h), 100%; in the data set with hair follicle (240 h) it was 78%; in the data set with hair follicle (360 h) it was 33%; in the data set on hair follicle (480 h), 0%. Moreover, the viability at 0.05 µM with hair follicle (600 h) came out at 0%. The “viability of the cultured keratinocytes (in words)” value in data set [4] (50 nM, 48 hours) was “increased the viability of the cultured keratinocytes”. The activation at 0.05 µM in data set [4] (48 h) came out at 23%; in data set [3], 23%; in data set [5] (72 hours), 43%; in data set [5] (96 hours) it was 51%. Besides, the “increase in the number of cells … (A)” value with HaCat cells [1] (setting [6]) is “+28%”. In addition, in data set [3], the activation at 0.0005 µM was determined as 17%. Moreover, the activation at 0.005 µM in data set [3] turned out to be 24%. In addition, in data set [3], the activation at 0.5 µM amounted to 14%. Also, the “number of keratinocytes which have entered into the S phase (in words)” value (shortened to “number … (in words)”) in data set [5] is given as “increase the number of keratinocytes which have entered into the S phase”.
For the compound `CCCCCCCCCCCCCCCC(O)C(CO)NC(=O)C(O)CCCCCCCCCCCCCC` (stereo not drawn) [C, 2-N-(2-hydroxyhexadecanoyl)amino-1,3-octadecanediol], the viability at 0.05 µM in the data set with hair follicle (0 h, 50 nM, day 0) was determined as 100%; with hair follicle (24 h, 50 nM, day 1), 100%; with hair follicle (120 h, 50 nM, day 5), 100%; with hair follicle (240 h, 50 nM, day 10) it was 50%; in the data set with hair follicle (360 h, 50 nM, day 15), 42%; with hair follicle (480 h, 50 nM, day 20), 25%. Also, the viability at 0.05 µM with hair follicle (600 h, 50 nM, day 25) was determined as 0%. The “viability of the cultured keratinocytes (in words)” value in data set [4] (50 nM, 48 hours) is “increased the viability of the cultured keratinocytes”. For the same compound, the activation at 0.05 µM in data set [4] (50 nM, 48 hours) worked out at 20%; in data set [3], 42%; in data set [5] (72 hours) it was 17%; in data set [5] (96 hours), 43%. In the data set on HaCat cells [1] (setting [6]), the “increase in the number of cells … (A)” value is “+23%”. Besides, the activation at 0.0005 µM in data set [3] turned out to be 26%. In addition, the activation at 0.005 µM in data set [3] is 36%. Besides, in data set [3], the activation at 0.5 µM is 22%. The “number … (in words)” value in data set [5] is reported as “increase the number of keratinocytes which have entered into the S phase”.
For the compound `CCCCCCCCCCCCCCCC(O)C(N)CO` (stereo not drawn) [A, 2-amino-1,3-octadecanediol], the viability at 0.05 µM with hair follicle (0 h, 50 nM, day 0) was determined as 100%; with hair follicle (24 h, 50 nM, day 1), 100%; with hair follicle (120 h, 50 nM, day 5), 90%; in the data set with hair follicle (240 h, 50 nM, day 10), 20%; in the data set with hair follicle (360 h, 50 nM, day 15), 0%; with hair follicle (480 h, 50 nM, day 20), 0%. In addition, in the data set with hair follicle (600 h, 50 nM, day 25), the viability at 0.05 µM is 0%. Also, in data set [4] (50 nM, 48 hours), the “viability of the cultured keratinocytes (in words)” value was “increased the viability of the cultured keratinocytes”. Further, the activation at 0.05 µM came out at 17% in data set [4] (50 nM, 48 hours); 17% in data set [3]; 36% in data set [5] (72 hours); 41% in data set [5] (96 hours). The “increase in the number of cells … (A)” value with HaCat cells [1] (setting [6]) is given as “+25%”. Moreover, the activation at 0.0005 µM in data set [3] was 7%. The activation at 0.005 µM in data set [3] worked out at 15%. In data set [3], the activation at 0.5 µM came to 30%. For the same compound, the “number … (in words)” value in data set [5] is “increase the number of keratinocytes which have entered into the S phase”.
